Measurements published in patent US8598342B2, “Methods and compounds for antimicrobial intervention” (President and Fellows of Harvard College, priority 2008, dated 2013).
“Also recorded” adds a separate entry of the source.

Assays:
S. aureus RN4220 = assay: Kill curve analysis; format: cell-based, Staphylococcus aureus; details: 10^6 cfu/mL S. aureus RN4220, 30° C.
Protocol: (§1) (A) Targocil MIC data for a panel of Gram-positive strains, including MRSA clinical isolates B5271 and 5340A. Growth was monitored in triplicate after 12 h at 28° C. using optical density. (B) Two dimensional drug interaction analysis between tunicamycin and targocil grown for 18 h at 30° C. […] At higher concentrations, tunicamycin is toxic because it inhibits cell wall biosynthesis. […] Varying concentrations of drug were added to […] of S. aureus RN4220 after 5 h and cell count was monitored over time at 30° C. […] Cells were grown at 28° C. for 12 h and monitored for growth using optical density (OD600). Data were normalized to the DMSO controls for each strain. (E) Two classes of mutants were examined: phage resistant (m1 3) and phage sensitive (m4-5).

[1] = system: IPTG-inducible tarO strain of S. aureus; assay: Growth of the IPTG-inducible tarO strain as a function of targocil concentration; format: cell-based, Staphylococcus aureus
Source text: (Top) Schematic of the IPTG-inducible tarO operon. […] Data were normalized to the DMSO controls for each strain.

[2] = system: strain overexpressing S. aureus TarGH; assay: Growth of S. aureus RN4220 overexpressing S. aureus tarGH; format: cell-based, Staphylococcus aureus; details: 28° C., 12 h, OD600
Protocol: as §1

[3] = system: S. aureus strains, including five MRSA strains; assay: In vitro MIC against a panel of S. aureus strains including MRSA; format: cell-based, Staphylococcus aureus
Protocol: as §1
(G. Bou, (2007) Methods Mol Biol 391, 29)

S. aureus TarF = molecular target: T1, S. aureus TarF (Staphylococcus aureus, UniProt Q2G1C1); assay: In vitro enzyme inhibition assay, TarF (radiometric); format: biochemical; details: targocil 50 μg/mL; enzyme 200 nM
T1 construct: made in house
T1 sequence (Q2G1C1 1-389): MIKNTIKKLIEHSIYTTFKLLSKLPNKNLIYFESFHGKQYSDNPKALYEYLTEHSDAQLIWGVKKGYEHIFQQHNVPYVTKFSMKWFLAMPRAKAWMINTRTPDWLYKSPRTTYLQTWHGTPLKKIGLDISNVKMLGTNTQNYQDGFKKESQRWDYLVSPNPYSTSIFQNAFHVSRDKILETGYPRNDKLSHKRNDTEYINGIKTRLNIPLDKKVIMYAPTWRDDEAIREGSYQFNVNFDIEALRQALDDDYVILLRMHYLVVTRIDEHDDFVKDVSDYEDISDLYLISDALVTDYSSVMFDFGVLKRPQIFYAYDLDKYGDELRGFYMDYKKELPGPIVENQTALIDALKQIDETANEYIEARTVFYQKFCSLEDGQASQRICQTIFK
Protocol: (§2) S. aureus TarB, D, F, I, and L were cloned, overexpressed and purified as described previously (S. Brown, Y. H. Zhang, S. Walker, Chemistry & Biology 15, 12, Jan. 2008.) Radiometric in vitro assays were run to test the inhibitory effects of targocil on Tar B, D, F, and L, while TarI was assayed for targocil inhibition using an HPLC assay using conditions similar to those previously reported (ibid). See below for exact reaction conditions. […] In each case, a reaction with no targocil served as a negative control (active enzymatic reaction) and a reaction with heat-treated enzyme served as a positive control (no enzymatic reaction). Targocil was incubated with all reaction components except the substrates at room temperature. After 10 minutes, substrates were added and the reactions were allowed to proceed for 60 minutes. The reactions were quenched with DMF and the products were imaged/monitored as previously described (ibid).
TarF in vitro inhibition assay protocol. Each 3 μL reaction contained 1 μM [14C]-GroP-ManNAc β-(1,4)-GlcNAc-pp-farnesyl, 3 μM [14C]-CDP-glycerol, 20 mM Tris base pH 7.5, 100 mM NaCl, 10 mM MgCl2, 200 nM TarF. The reactions were quenched and imaged as described above for TarB.

[4] = system: S. aureus RN4220 TarG:F82L (m4); assay: MIC analysis of RN4220 carrying the mutant tarG allele TarG:F82L; format: cell-based, Staphylococcus aureus; details: mutant allele exchanged into RN4220
Source text: Therefore, we conclude that TarG is a target of targocil. […] (Davidson A L, Dassa E, Orelle C, & Chen J (2008) Microbiology and Molecular Biology Reviews 72:317-364) In addition to functioning as antibiotics, inhibitors such as targocil, and derivatives thereof, could be valuable tools for mechanistic and structural analyses of ABC transporters.

S. aureus TarB = molecular target: T2, S. aureus TarB (Staphylococcus aureus, UniProt Q2G2X4); assay: In vitro enzyme inhibition assay, TarB (radiometric); format: biochemical; details: targocil 50 μg/mL; enzyme 200 nM
T2 construct: made in house
T2 sequence (Q2G2X4 1-367): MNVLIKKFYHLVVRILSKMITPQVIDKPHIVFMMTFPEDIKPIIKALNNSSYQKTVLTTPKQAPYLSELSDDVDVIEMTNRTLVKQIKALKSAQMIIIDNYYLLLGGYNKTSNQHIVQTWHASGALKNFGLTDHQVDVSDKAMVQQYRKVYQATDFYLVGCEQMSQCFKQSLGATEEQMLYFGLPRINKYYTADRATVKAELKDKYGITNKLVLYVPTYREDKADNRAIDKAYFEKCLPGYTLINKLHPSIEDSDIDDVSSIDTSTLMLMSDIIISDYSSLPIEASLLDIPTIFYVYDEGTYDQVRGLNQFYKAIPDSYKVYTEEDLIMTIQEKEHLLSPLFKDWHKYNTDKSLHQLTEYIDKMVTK
Protocol: as §2

S. aureus TarJ = molecular target: T3, S. aureus TarJ (Staphylococcus aureus, UniProt Q2G1B9); assay: In vitro enzyme inhibition assay, TarJ; format: biochemical; details: targocil 50 μg/mL
T3 sequence (Q2G1B9 1-341): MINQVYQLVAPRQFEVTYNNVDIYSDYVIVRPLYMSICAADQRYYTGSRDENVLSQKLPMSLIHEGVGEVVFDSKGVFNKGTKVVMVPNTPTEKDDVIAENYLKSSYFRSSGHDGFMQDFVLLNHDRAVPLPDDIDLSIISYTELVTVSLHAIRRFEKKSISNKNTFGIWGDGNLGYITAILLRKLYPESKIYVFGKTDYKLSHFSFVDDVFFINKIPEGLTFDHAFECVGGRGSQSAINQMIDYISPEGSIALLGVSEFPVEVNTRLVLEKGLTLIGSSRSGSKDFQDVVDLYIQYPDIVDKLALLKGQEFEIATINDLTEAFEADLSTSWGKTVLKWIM

CCN(CC)c1nc2c(S(=O)(=O)c3ccccc3)nnn2c2ccc(Cl)cc12 [7-chloro-N,N-diethyl-3-(phenylsulfonyl)-[1,2,3]triazolo[1,5-a]quinazolin-5-amine]
mode of action in kill curve (bacteriostatic or bactericidal) (S. aureus RN4220): bacteriostatic | effect on cell growth, tarO not induced ([1]; in the absence of IPTG): no effect | effect on cell growth, tarO induced ([1]; in the presence of IPTG): inhibited cell growth | resistance to targocil of strain overexpressing S. aureus TarGH [2]: partially resistant; also recorded: partial resistance | effectiveness against strains of S. aureus ([3]; RN4220, RN450, Newman strain, Wood strain): effective against numerous strains of S. aureus | in vitro MIC values against all tested S. aureus strains ([3]; including five MRSA strains): low μg/mL range | species selectivity of antibiotic activity ([3]; panel of Gram-positive strains): selective for S. aureus | inhibition of TarF (S. aureus TarF): None of these enzymes was inhibited | resistance to targocil of TarG:F82L strain [4]: fully resistant; also recorded: confer resistance | inhibition of TarB (S. aureus TarB): None of these enzymes was inhibited | inhibition of TarJ (S. aureus TarJ): None of these enzymes was inhibited
